What was measured:
MDA-MB-231 = experiment: Growth inhibition of human MDA-MB-231 cells after 92 hrs by CellTiter-Blue assay; assay type: functional; settings: MDA-MB-231, 92 h
U2OS = experiment: Growth inhibition of human U2OS cells after 92 hrs by CellTiter-Blue assay; assay type: functional
[1] = molecular target: T1, Serine/threonine-protein kinase Nek2 (Homo sapiens, UniProt P51955); settings: u2os
T1 sequence (P51955 whole entry): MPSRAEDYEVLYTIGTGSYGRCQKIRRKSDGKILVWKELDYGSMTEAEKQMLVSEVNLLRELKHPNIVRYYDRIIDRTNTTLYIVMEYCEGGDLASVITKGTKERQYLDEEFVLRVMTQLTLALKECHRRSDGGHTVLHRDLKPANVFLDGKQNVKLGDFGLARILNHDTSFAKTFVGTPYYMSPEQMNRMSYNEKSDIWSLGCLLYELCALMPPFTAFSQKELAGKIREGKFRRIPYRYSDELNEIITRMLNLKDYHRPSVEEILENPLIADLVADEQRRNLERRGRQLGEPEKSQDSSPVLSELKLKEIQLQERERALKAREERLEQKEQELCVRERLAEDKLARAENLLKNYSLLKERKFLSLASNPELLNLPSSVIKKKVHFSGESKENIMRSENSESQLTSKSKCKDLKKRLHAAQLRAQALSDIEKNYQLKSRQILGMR
Description: Inhibition of Nek2-mediated C-Nap1 phosphorylation in human U2OS cells after 3 hrs by immunofluorescence microscopy

MCF7 = experiment: Growth inhibition of human MCF7 cells after 92 hrs by CellTiter-Blue assay; assay type: functional; settings: MCF7, 92 h
HeLa = experiment: Growth inhibition of human HeLa cells after 92 hrs by CellTiter-Blue assay; assay type: functional
[2] = molecular target: T1, Serine/threonine-protein kinase Nek2
[3] = molecular target: Serine/threonine-protein kinase PLK1 (Homo sapiens, UniProt P53350); experiment: Inhibition of Plk1 using 5-FAMRRRAGALMDASFEEQ- CONH2 as substrate after 75 mins by caliper method
Sequence of Serine/threonine-protein kinase PLK1 (P53350 whole entry): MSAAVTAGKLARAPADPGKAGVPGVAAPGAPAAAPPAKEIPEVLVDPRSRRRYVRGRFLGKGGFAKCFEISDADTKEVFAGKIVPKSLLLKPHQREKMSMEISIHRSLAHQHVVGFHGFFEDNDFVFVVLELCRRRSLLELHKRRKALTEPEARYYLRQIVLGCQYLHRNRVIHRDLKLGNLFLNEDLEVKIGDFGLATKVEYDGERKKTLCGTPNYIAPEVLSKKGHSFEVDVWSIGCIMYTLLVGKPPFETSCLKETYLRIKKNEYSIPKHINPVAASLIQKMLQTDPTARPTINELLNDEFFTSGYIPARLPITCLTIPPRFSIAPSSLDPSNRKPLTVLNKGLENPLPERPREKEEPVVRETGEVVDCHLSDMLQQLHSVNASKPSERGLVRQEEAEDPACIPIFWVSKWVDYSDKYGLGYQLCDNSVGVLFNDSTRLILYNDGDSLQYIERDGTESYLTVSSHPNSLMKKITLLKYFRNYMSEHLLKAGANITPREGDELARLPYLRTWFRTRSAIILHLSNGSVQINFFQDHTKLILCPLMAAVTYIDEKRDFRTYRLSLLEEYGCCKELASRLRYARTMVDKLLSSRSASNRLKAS

[4] = Permeability of the compound by PAMPA assay; assay type: ADME
[5] = Drug metabolism in mouse liver microsomes after 30 mins; assay type: ADME, Microsome; settings: read-out: Drug metabolism
[6] = molecular target: T2, Dual specificity protein kinase TTK (Homo sapiens, UniProt P33981); experiment: Inhibition of MPS1 by caliper method
T2 sequence (P33981 whole entry): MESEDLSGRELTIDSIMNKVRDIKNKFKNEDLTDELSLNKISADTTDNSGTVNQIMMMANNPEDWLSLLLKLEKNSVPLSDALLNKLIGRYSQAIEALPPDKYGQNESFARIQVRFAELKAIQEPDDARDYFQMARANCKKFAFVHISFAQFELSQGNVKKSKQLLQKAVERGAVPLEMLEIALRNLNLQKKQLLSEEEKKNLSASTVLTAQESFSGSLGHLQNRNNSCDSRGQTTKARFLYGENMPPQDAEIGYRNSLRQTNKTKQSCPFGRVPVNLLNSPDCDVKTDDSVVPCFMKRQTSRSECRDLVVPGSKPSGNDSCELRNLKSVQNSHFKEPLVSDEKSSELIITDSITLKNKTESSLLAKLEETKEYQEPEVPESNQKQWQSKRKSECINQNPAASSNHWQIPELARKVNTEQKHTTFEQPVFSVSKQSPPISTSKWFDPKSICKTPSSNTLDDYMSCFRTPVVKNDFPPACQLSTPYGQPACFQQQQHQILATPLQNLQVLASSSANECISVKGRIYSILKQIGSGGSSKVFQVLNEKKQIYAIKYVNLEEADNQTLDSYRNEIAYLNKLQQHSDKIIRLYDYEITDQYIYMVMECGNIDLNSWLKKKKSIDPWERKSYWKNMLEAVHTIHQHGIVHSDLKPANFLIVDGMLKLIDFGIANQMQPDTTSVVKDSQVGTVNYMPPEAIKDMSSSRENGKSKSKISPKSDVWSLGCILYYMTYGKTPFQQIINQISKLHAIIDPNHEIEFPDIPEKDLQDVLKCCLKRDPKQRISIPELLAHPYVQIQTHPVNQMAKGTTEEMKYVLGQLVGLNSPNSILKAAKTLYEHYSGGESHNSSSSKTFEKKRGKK

[7] = molecular target: Cyclin-dependent kinase 2 (Homo sapiens, UniProt P24941); experiment: Inhibition of CDK2 by caliper method
Aurora kinase A = molecular target: T3, Aurora kinase A (Homo sapiens, UniProt O14965); experiment: Inhibition of Aurora A kinase by caliper method
T3 sequence (O14965 whole entry): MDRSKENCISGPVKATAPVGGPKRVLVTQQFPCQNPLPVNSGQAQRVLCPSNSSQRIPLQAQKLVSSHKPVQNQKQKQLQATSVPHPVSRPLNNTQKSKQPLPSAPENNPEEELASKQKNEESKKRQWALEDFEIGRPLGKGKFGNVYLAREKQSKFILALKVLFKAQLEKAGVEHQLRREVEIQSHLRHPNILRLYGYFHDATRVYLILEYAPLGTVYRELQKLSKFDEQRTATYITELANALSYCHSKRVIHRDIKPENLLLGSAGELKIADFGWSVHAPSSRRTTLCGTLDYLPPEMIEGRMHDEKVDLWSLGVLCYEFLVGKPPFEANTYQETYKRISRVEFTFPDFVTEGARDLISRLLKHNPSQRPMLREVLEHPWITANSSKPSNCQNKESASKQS

CC(Oc1cc(-n2cnc3cc(OC4CCN(C)CC4)ccc32)ccc1C(N)=O)c1ccccc1C(F)(F)F (racemic)
GI50 (MDA-MB-231): 4950 nM
GI50 (U2OS): 2960 nM
IC50 [1]: Not Active
GI50 (MCF7): 2030 nM
GI50 (HeLa): 1200 nM

CC(Oc1cc(-c2cc(-c3ccc(CN(C)C)s3)cnc2N)ccc1C(N)=O)c1ccccc1C(F)(F)F (racemic)
IC50 [2]: 47 nM
IC50 [3]: 500 nM

CC(Oc1cc(-c2cc(-c3ccc(CN4CCOCC4)s3)cnc2N)ccc1C(N)=O)c1ccccc1C(F)(F)F (racemic)
IC50 [2]: 318 nM

CC(Oc1cc(-c2nc(-c3ccc(CN(C)C)s3)cnc2N)ccc1C(N)=O)c1ccccc1C(F)(F)F (racemic)
IC50 [2]: 2680 nM

Cc1cc(-c2cnc(N)c(-c3ccc(C(N)=O)c(OC(C)c4ccccc4C(F)(F)F)c3)c2)sc1CN(C)C (racemic)
IC50 [2]: 47 nM

CC(Oc1cc(-c2cc(-c3ccc(CN4CCCCC4)s3)cnc2N)ccc1C(N)=O)c1ccccc1C(F)(F)F (racemic)
IC50 [2]: 93 nM

Cc1cc(CN(C)C)sc1-c1cnc(N)c(-c2ccc(C(N)=O)c(OC(C)c3ccccc3C(F)(F)F)c2)c1 (racemic)
IC50 [2]: 58 nM

CC(Oc1cc(-c2nc(-c3ccc(CN(C)C)cc3)cnc2N)ccc1C(N)=O)c1ccccc1C(F)(F)F (racemic)
IC50 [2]: 790 nM
IC50 [3]: 3900 nM

CC(/C=C\C(F)(F)F)Oc1cc(-c2cc(-c3cc(CN(C)C)cs3)cnc2N)ccc1C(N)=O (racemic)
IC50 [2]: 73 nM
permeability [4]: 27.6 ×10⁻⁶ cm/s
metabolised at 0.5 h [5]: 95%
IC50 [3]: 8410 nM

CC(Oc1cc(-c2cc(-c3cccs3)cnc2N)ccc1C(N)=O)c1ccccc1C(F)(F)F (racemic)
IC50 [2]: 9000 nM

COc1cc(-c2cc(-c3cccs3)cnc2N)ccc1C(N)=O
IC50 [2]: 10500 nM

C[C@@H](/C=C\C(F)(F)F)Oc1cc(-c2cc(-c3cc(CN(C)C)cs3)cnc2N)ccc1C(N)=O
GI50 (MDA-MB-231): 7250 nM
IC50 [6]: 7120 nM
GI50 (U2OS): 2170 nM
IC50 [1]: Not Active
GI50 (MCF7): 5420 nM
IC50 [7]: 530 nM
IC50 [2]: 1800 nM
GI50 (HeLa): 440 nM
IC50 [3]: > 50000 nM
IC50 (Aurora kinase A): 2330 nM

CC(Oc1cc(-c2cc(-c3cccc(CN(C)C)c3)cnc2N)ccc1C(N)=O)c1ccccc1C(F)(F)F (racemic)
IC50 [2]: 210 nM
IC50 [3]: 3290 nM

CC(Oc1cc(-c2cc(-c3ccc(CN(C)C)cc3)cnc2N)ccc1C(N)=O)c1ccccc1C(F)(F)F (racemic)
IC50 [6]: 3060 nM
IC50 [7]: 2740 nM
IC50 [2]: 120 nM
IC50 [3]: 1560 nM
IC50 (Aurora kinase A): 7930 nM

CC(Oc1cc(-c2nc(-c3cccc(CN(C)C)c3)cnc2N)ccc1C(N)=O)c1ccccc1C(F)(F)F (racemic)
IC50 [2]: 2470 nM
IC50 [3]: 12100 nM

CC(Oc1cc(-c2nc(-c3cc(CN(C)C)cs3)cnc2N)ccc1C(N)=O)c1ccccc1C(F)(F)F (racemic)
IC50 [2]: 2630 nM

CC(Oc1cc(-c2cc(-c3cc(CN(C)C)cs3)cnc2N)ccc1C(N)=O)c1ccccc1C(F)(F)F (racemic)
metabolised at 0.5 h [5]: 87%
IC50 [3]: 1320 nM

C[C@@H](Oc1cc(-c2cc(-c3cc(CN(C)C)cs3)cnc2N)ccc1C(N)=O)c1ccccc1C(F)(F)F
GI50 (MDA-MB-231): 950 nM
IC50 [6]: 4810 nM
GI50 (U2OS): 480 nM
GI50 (MCF7): 220 nM
IC50 [7]: 26600 nM
GI50 (HeLa): 140 nM
IC50 [3]: 820 nM
IC50 (Aurora kinase A): 8810 nM

COc1cc(-c2cc(-c3cc(CN(C)C)cs3)cnc2N)ccc1C(N)=O
IC50 [2]: 2260 nM

From ChEMBL document CHEMBL2040736, “Design of potent and selective hybrid inhibitors of the mitotic kinase Nek2: structure-activity relationship, structural biology, and cellular activity” (J Med Chem, 2012)
